These results are taken from US20260207563A1, “UREA COMPOUNDS AS ACTIVATORS OF POTASSIUM CHANNELS KV7.2/7.3 USEFUL IN THE TREATMENT OF CNS AND PNS DISORDERS” (ANGELINI PHARMA S.P.A., priority 2022, published 2026).

Structures are written as SMILES.

Holding throughout (format): cell-based
The target in assay [1] is T1, homomeric KV7.4 channel (KCNQ4) (Homo sapiens, UniProt P56696).
T1 construct: host or cells: CHO-K1
Nature of the assay: Automated patch-clamp (Qube) counter-screening assay against KV7.4 channel. The note with it: CHO-K1 cells expressing KV7.4; class by maximal shift in the Vhalf at 30 μM. The procedure, abridged:
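EC50 and maximal shift in half-activation voltage come from 4-parameter logistic fits of mean Vhalf shifts. The series had ten 1-in-3 concentrations, highest 30 μM, each tested in quadruplicate. Recordings used automated Qube patch clamp on a stable CHO-K1 line expressing KCNQ4, and selectivity was judged from the 30 μM Vhalf shift.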
A general note: In patch-clamp work, channel activity is measured electrically.

The target in assay [2] is T2, heteromeric KV7.3/KV7.5 channel (KCNQ3, KCNQ5) (Homo sapiens, UniProt O43525+Q9NR82).
T2 construct: host or cells: HEK293
The experiment in a line: Automated patch-clamp counter-screening against KV7.3/KV7.5 channel. The note with it: HEK293 cells expressing Kv7.3/KV7.5; class by maximal shift in the Vhalf at 30 μM. In outline: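 Potency came from a 4-parameter logistic fit of mean voltage-of-half-activation shifts, yielding EC50 and maximal shift; selectivity was judged on the shift at 30 μM. Compounds were applied at ten 3-fold dilutions from 30 μM in quadruplicate to HEK293 cells stably carrying Kv7.3 with tet-inducible Kv7.5.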

Assay [3] concerns the target T3, heteromeric KV7.2/KV7.3 channels (KCNQ2, KCNQ3) (Homo sapiens, UniProt O43525+O43526).
T3 construct: expressed in transfected cells; host or cells: CHO-K1
Nature of the assay: Automated patch-clamp (Sophion Qube 384) potency assay against KV7.2/KV7.3 channels. The note with it: CHO-K1/Kv7.2/Kv7.3 cells; for EC50: EC50 from concentration-response of shift in Vhalf, 10 concentrations up to 30 μM, read-out: Kv7.2/7.3 EC50; for Kv7.2/7.3 ΔV1/2: maximal shift in the Vhalf from the top of the curve. The procedure, abridged: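 Activator potency: EC50 from 4-parameter logistic fit of mean Vhalf shift across ten 1-in-3 dilutions starting at 30 μM (n=4), with DMSO (typically 0.3%) control. Currents recorded by leak-subtracted whole-cell clamp of stable CHO-K1 KV7.2/KV7.3 cells, held at −80 mV, stepped −100 to +20 mV then 0 mV tails.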

Turning to `C[C@H](NC(=O)NCCC1(C(F)(F)F)CC1)c1ccnc(C(F)(F)F)c1` [Compound 97], the Kv7.4 selectivity criteria entry in assay [1] is “B (Non-selective compounds showed Kv7.4 and/or Kv7.3/7.5 ΔV1/2 higher than 15 mV (letter B in table 3))”. In addition, the Kv7.3/7.5 selectivity criteria entry in assay [2] is reported as “B (Non-selective compounds showed Kv7.4 and/or Kv7.3/7.5 ΔV1/2 higher than 15 mV (letter B in table 3))”. Besides, in assay [3], the EC50 was 2300 nM and the “Kv7.2/7.3 ΔV1/2” value is recorded as 26.87 mV.

As for `O=C(NCCC1(C(F)(F)F)CC1)NCc1ccnc(OCC2CC(F)(F)C2)c1` [Compound 15, 1-((2-((3,3-Difluorocyclobutyl)methoxy)pyridin-4-yl)methyl)-3-(2-(1-(trifluoromethyl)cyclopropyl)ethyl)urea], in assay [1], the Kv7.4 selectivity criteria result was “A (Selective compounds showed Kv7.4 and/or Kv7.3/7.5 ΔV1/2 equal to or lower than 15 mV (letter A in table 3))”. Also, the Kv7.3/7.5 selectivity criteria entry in assay [2] is reported as “A (Selective compounds showed Kv7.4 and/or Kv7.3/7.5 ΔV1/2 equal to or lower than 15 mV (letter A in table 3))”. Also, in assay [3], the EC50 was determined as 2020 nM and the “Kv7.2/7.3 ΔV1/2” value is 25.72 mV.

Take `O=C(NCCC1(C(F)(F)F)CC1)NCc1ccnc(OCC(F)(F)F)c1F` [Compound 90]: the Kv7.4 selectivity criteria entry in assay [1] is given as “A (Selective compounds showed Kv7.4 and/or Kv7.3/7.5 ΔV1/2 equal to or lower than 15 mV (letter A in table 3))”. Moreover, the Kv7.3/7.5 selectivity criteria entry in assay [2] is listed as “A (Selective compounds showed Kv7.4 and/or Kv7.3/7.5 ΔV1/2 equal to or lower than 15 mV (letter A in table 3))”. In assay [3], the EC50 turned out to be 237 nM and the “Kv7.2/7.3 ΔV1/2” value worked out at 20.86 mV.

Consider `O=C(NCc1ccnc(OCC(F)(F)F)c1)NC1COc2ccc(F)cc21` (centres unmarked) [Compound 147], for which the Kv7.4 selectivity criteria result in assay [1] is “A (Selective compounds showed Kv7.4 and/or Kv7.3/7.5 ΔV1/2 equal to or lower than 15 mV (letter A in table 3))”. In addition, the Kv7.3/7.5 selectivity criteria entry in assay [2] is recorded as “A (Selective compounds showed Kv7.4 and/or Kv7.3/7.5 ΔV1/2 equal to or lower than 15 mV (letter A in table 3))”. Besides, in assay [3], the EC50 came out at 1890 nM and the “Kv7.2/7.3 ΔV1/2” value worked out at 15.93 mV.

Turning to `CC(C)(CCNC(=O)NCc1ccnc(OCC(F)(F)F)c1)C(F)(F)F` [Compound 41, 1-(4,4,4-Trifluoro-3,3-dimethylbutyl)-3-((2-(2,2,2-trifluoroethoxy)pyridin-4-yl)methyl)urea], in assay [1], the Kv7.4 selectivity criteria result is “A (Selective compounds showed Kv7.4 and/or Kv7.3/7.5 ΔV1/2 equal to or lower than 15 mV (letter A in table 3))”. In addition, in assay [2], the Kv7.3/7.5 selectivity criteria result is on record as “A (Selective compounds showed Kv7.4 and/or Kv7.3/7.5 ΔV1/2 equal to or lower than 15 mV (letter A in table 3))”. In assay [3], the EC50 is 428 nM and the “Kv7.2/7.3 ΔV1/2” value is 29.72 mV.

On to `O=C(NCc1ccnc(OCC(F)(F)F)c1)N[C@H]1CCc2ccc(F)cc21` [Compound 89], for which the Kv7.4 selectivity criteria result in assay [1] is “B (Non-selective compounds showed Kv7.4 and/or Kv7.3/7.5 ΔV1/2 higher than 15 mV (letter B in table 3))”. Besides, the Kv7.3/7.5 selectivity criteria entry in assay [2] is “A (Selective compounds showed Kv7.4 and/or Kv7.3/7.5 ΔV1/2 equal to or lower than 15 mV (letter A in table 3))”. Besides, in assay [3], the EC50 came to 2180 nM and the “Kv7.2/7.3 ΔV1/2” value came to 18.85 mV.

For the compound `C[C@@H](Oc1nccc(CNC(=O)NCCC2(C(F)(F)F)CC2)n1)C(F)(F)F` [Compound 93], in assay [1], the Kv7.4 selectivity criteria entry was “B (Non-selective compounds showed Kv7.4 and/or Kv7.3/7.5 ΔV1/2 higher than 15 mV (letter B in table 3))”. Moreover, the Kv7.3/7.5 selectivity criteria entry in assay [2] is on record as “A (Selective compounds showed Kv7.4 and/or Kv7.3/7.5 ΔV1/2 equal to or lower than 15 mV (letter A in table 3))”. In assay [3], the EC50 came out at 4460 nM and the “Kv7.2/7.3 ΔV1/2” value is on record as 34.16 mV.

Turning to `COc1ccc2c(c1)CCC2NC(=O)NCc1ccnc(OCC(F)(F)F)c1` (centres unmarked) [Compound 122], the Kv7.4 selectivity criteria entry in assay [1] is given as “A (Selective compounds showed Kv7.4 and/or Kv7.3/7.5 ΔV1/2 equal to or lower than 15 mV (letter A in table 3))”. In addition, the Kv7.3/7.5 selectivity criteria result in assay [2] was “A (Selective compounds showed Kv7.4 and/or Kv7.3/7.5 ΔV1/2 equal to or lower than 15 mV (letter A in table 3))”. Moreover, in assay [3], the EC50 came out at 2710 nM and the “Kv7.2/7.3 ΔV1/2” value came to 26.22 mV.

As for `O=C(N[C@@H](CO)c1ccnc(OCC(F)(F)F)c1)N[C@@H]1CCc2ccc(F)cc21` [Compound 101], the Kv7.4 selectivity criteria entry in assay [1] was “B (Non-selective compounds showed Kv7.4 and/or Kv7.3/7.5 ΔV1/2 higher than 15 mV (letter B in table 3))”. For the same compound, the Kv7.3/7.5 selectivity criteria result in assay [2] is listed as “B (Non-selective compounds showed Kv7.4 and/or Kv7.3/7.5 ΔV1/2 higher than 15 mV (letter B in table 3))”. In addition, in assay [3], the EC50 turned out to be 2640 nM and the “Kv7.2/7.3 ΔV1/2” value was found to be 38.71 mV.

For `C[C@@H](Oc1cc(CNC(=O)NCCC2(C(F)(F)F)CC2)ncn1)C(F)(F)F` [Compound 91], the Kv7.4 selectivity criteria result in assay [1] was “A (Selective compounds showed Kv7.4 and/or Kv7.3/7.5 ΔV1/2 equal to or lower than 15 mV (letter A in table 3))”. Also, the Kv7.3/7.5 selectivity criteria result in assay [2] is listed as “B (Non-selective compounds showed Kv7.4 and/or Kv7.3/7.5 ΔV1/2 higher than 15 mV (letter B in table 3))”. Moreover, in assay [3], the EC50 is 2290 nM and the “Kv7.2/7.3 ΔV1/2” value is given as 37.24 mV.

`O=C(NCc1ccnc(OCC(F)(F)F)c1)N[C@H]1CCCC[C@@H]1O` [Compound 63, 1-((1S,2S)-2-Hydroxycyclohexyl)-3-((2-(2,2,2-trifluoroethoxy)pyridin-4-yl)methyl)urea]: the Kv7.4 selectivity criteria result in assay [1] is recorded as “B (Non-selective compounds showed Kv7.4 and/or Kv7.3/7.5 ΔV1/2 higher than 15 mV (letter B in table 3))”. Besides, the Kv7.3/7.5 selectivity criteria entry in assay [2] is given as “B (Non-selective compounds showed Kv7.4 and/or Kv7.3/7.5 ΔV1/2 higher than 15 mV (letter B in table 3))”. In assay [3], the EC50 stood at 11800 nM and the “Kv7.2/7.3 ΔV1/2” value was found to be 33.01 mV.

`O=C(NCc1ccnc(C(F)(F)F)c1)Nc1cc(F)cc(Cl)c1` [Compound 102]: the Kv7.4 selectivity criteria entry in assay [1] was “B (Non-selective compounds showed Kv7.4 and/or Kv7.3/7.5 ΔV1/2 higher than 15 mV (letter B in table 3))”. Also, the Kv7.3/7.5 selectivity criteria result in assay [2] is reported as “B (Non-selective compounds showed Kv7.4 and/or Kv7.3/7.5 ΔV1/2 higher than 15 mV (letter B in table 3))”. Further, in assay [3], the EC50 was found to be 3830 nM and the “Kv7.2/7.3 ΔV1/2” value stood at 35.23 mV.

Take `O=C(NCc1ccnc(OCC(F)(F)F)c1)N[C@@H]1CCCC[C@@H]1O` [Compound 62, 1-((1R,2S)-2-Hydroxycyclohexyl)-3-((2-(2,2,2-trifluoroethoxy)pyridin-4-yl)methyl) urea]: the Kv7.4 selectivity criteria entry in assay [1] is “A (Selective compounds showed Kv7.4 and/or Kv7.3/7.5 ΔV1/2 equal to or lower than 15 mV (letter A in table 3))”. Also, the Kv7.3/7.5 selectivity criteria entry in assay [2] is recorded as “B (Non-selective compounds showed Kv7.4 and/or Kv7.3/7.5 ΔV1/2 higher than 15 mV (letter B in table 3))”. Also, in assay [3], the EC50 was found to be 11700 nM and the “Kv7.2/7.3 ΔV1/2” value is 16.94 mV.

Take `O=C(NCc1ccnc(OCC(F)(F)F)c1)N[C@@H]1CCc2ccc(C(F)(F)F)cc21` [Compound 162]: in assay [1], the Kv7.4 selectivity criteria entry is recorded as “B (Non-selective compounds showed Kv7.4 and/or Kv7.3/7.5 ΔV1/2 higher than 15 mV (letter B in table 3))”. Moreover, in assay [2], the Kv7.3/7.5 selectivity criteria result is recorded as “A (Selective compounds showed Kv7.4 and/or Kv7.3/7.5 ΔV1/2 equal to or lower than 15 mV (letter A in table 3))”. Besides, in assay [3], the EC50 turned out to be 926 nM and the “Kv7.2/7.3 ΔV1/2” value turned out to be 18.2 mV.

On to `O=C(NCCC1(C(F)(F)F)CC1)NCc1ccnc(OCc2ccccn2)c1` [Compound 23, 1-((2-(Pyridin-2-ylmethoxy)pyridin-4-yl)methyl)-3-(2-(1-(trifluoromethyl)cyclopropyl)ethyl)urea], for which the Kv7.4 selectivity criteria result in assay [1] is reported as “A (Selective compounds showed Kv7.4 and/or Kv7.3/7.5 ΔV1/2 equal to or lower than 15 mV (letter A in table 3))”. For the same compound, the Kv7.3/7.5 selectivity criteria result in assay [2] is recorded as “A (Selective compounds showed Kv7.4 and/or Kv7.3/7.5 ΔV1/2 equal to or lower than 15 mV (letter A in table 3))”. Also, in assay [3], the EC50 turned out to be 4750 nM and the “Kv7.2/7.3 ΔV1/2” value is given as 18.69 mV.

Regarding `Cc1ccccc1NC(=O)NCc1ccnc(OCC(F)(F)F)c1` [Compound 46, 1-(o-Tolyl)-3-((2-(2,2,2-trifluoroethoxy)pyridin-4-yl)methyl)urea], the Kv7.4 selectivity criteria result in assay [1] is recorded as “B (Non-selective compounds showed Kv7.4 and/or Kv7.3/7.5 ΔV1/2 higher than 15 mV (letter B in table 3))”. Moreover, the Kv7.3/7.5 selectivity criteria entry in assay [2] is “B (Non-selective compounds showed Kv7.4 and/or Kv7.3/7.5 ΔV1/2 higher than 15 mV (letter B in table 3))”. In assay [3], the EC50 stood at 432 nM and the “Kv7.2/7.3 ΔV1/2” value worked out at 21.41 mV.

Turning to `COc1ccc2c(c1)[C@H](NC(=O)NCc1ccnc(OCC(F)(F)F)c1)CC2` [Compound 134], the Kv7.4 selectivity criteria result in assay [1] is given as “A (Selective compounds showed Kv7.4 and/or Kv7.3/7.5 ΔV1/2 equal to or lower than 15 mV (letter A in table 3))”. For the same compound, in assay [2], the Kv7.3/7.5 selectivity criteria result was “B (Non-selective compounds showed Kv7.4 and/or Kv7.3/7.5 ΔV1/2 higher than 15 mV (letter B in table 3))”. Also, in assay [3], the EC50 amounted to 3090 nM and the “Kv7.2/7.3 ΔV1/2” value came out at 43.25 mV.
